{"source": "patent US10548876B2", "about": "(Race Oncology Ltd., priority 2013, dated 2020)", "origin": "cited, not measured here", "key": {"[1]": {"conditions": "local injection; physically decomposes bisantrene"}, "telomerase": {"tested_on": "telomerase", "conditions": "by interfering with substrate recognition"}, "[2]": {"tested_on": "telomerase-expressing cells and ALT-positive cell lines"}, "[3]": {"molecular_target": "glycogen synthase kinase-3β (GSK-3β) (Homo sapiens, UniProt P49841)", "sequence (P49841 whole entry, species assumed)": "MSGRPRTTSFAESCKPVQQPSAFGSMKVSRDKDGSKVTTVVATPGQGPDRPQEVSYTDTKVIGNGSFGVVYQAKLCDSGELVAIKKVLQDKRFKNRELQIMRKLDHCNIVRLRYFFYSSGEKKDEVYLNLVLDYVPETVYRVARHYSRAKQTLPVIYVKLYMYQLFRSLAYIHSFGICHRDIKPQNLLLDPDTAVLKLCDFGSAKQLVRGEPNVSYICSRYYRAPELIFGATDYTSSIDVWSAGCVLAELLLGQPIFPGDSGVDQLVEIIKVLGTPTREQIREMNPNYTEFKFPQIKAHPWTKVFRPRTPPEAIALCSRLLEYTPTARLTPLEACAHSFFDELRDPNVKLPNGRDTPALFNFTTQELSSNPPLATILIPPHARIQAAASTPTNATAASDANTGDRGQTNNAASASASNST"}, "double-stranded DNA": {"tested_on": "double-stranded DNA", "conditions": "under physiological conditions, threading mode"}, "[4]": {"tested_on": "colon 26, Lewis lung, Ridgway osteosarcoma, B16, Lieberman plasma cell, P388 or L1210 cancer cells"}, "metastatic breast cancer": {"tested_on": "metastatic breast cancer", "conditions": "patients with metastatic breast cancer"}, "human colon cancer": {"tested_on": "human colon cancer", "conditions": "human colon cancer tested in vitro or in vivo"}, "[5]": {"tested_on": "refractory malignant melanoma"}, "[6]": {"experiment": "not given", "remark": "listed apart in the source"}, "[7]": {"conditions": "over 96 hr"}, "[8]": {"conditions": "triphasic elimination"}, "[9]": {"conditions": "one report; interpreted as tissue sequestration with depot effect"}, "[10]": {"conditions": "72-hr infusion"}, "[11]": {"conditions": "5 day schedule of 60 min infusions"}, "[12]": {"experiment": "not given", "remark": "listed apart in the source"}, "[13]": {"experiment": "not given", "remark": "listed apart in the source"}, "[14]": {"experiment": "not given", "remark": "listed apart in the source"}, "[15]": {"conditions": "physiologic pH"}, "[16]": {"tested_on": "hepatic microsomal enzymes", "conditions": "specific metabolites not identified"}, "[17]": {"conditions": "in vivo"}, "P-glycoprotein": {"molecular_target": "P-glycoprotein (Homo sapiens, UniProt P08183)", "sequence (P08183 whole entry)": "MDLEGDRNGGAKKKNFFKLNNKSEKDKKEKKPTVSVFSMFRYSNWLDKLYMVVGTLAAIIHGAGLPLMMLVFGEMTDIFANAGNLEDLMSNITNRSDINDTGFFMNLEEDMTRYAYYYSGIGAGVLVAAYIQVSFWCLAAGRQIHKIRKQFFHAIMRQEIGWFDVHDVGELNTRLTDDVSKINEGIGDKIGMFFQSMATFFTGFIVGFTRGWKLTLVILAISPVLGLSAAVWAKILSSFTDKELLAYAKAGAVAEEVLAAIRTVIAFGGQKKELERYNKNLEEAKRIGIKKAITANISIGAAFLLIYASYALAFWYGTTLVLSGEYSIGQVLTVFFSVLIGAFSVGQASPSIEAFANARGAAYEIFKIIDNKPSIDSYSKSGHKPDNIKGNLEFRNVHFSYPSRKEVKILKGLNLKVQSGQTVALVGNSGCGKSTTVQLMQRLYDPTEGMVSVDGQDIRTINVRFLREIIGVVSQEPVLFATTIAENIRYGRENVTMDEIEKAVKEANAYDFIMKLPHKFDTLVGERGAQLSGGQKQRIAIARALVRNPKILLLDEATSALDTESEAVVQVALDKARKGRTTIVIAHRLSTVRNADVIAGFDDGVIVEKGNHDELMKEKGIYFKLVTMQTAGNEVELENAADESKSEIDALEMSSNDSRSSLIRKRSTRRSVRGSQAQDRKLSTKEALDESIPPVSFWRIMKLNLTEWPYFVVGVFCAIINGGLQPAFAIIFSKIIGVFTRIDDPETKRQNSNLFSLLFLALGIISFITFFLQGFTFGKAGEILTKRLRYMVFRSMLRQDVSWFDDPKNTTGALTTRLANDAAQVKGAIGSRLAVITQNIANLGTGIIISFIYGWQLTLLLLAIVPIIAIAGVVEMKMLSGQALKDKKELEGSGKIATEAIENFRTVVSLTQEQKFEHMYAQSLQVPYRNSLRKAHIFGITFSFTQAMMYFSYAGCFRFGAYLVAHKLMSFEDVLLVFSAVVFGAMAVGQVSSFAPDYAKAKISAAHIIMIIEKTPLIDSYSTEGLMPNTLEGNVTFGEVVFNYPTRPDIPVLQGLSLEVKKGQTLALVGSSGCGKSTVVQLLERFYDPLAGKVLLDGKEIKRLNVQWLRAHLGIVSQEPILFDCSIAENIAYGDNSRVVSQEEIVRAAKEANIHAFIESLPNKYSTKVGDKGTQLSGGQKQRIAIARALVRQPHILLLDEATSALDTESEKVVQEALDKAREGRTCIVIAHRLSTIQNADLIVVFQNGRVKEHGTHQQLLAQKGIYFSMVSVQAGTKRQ"}, "[18]": {"conditions": "patients, 90 min infusion at 260 mg/m^2"}}, "note": "Structures can show the parent of a compound that is named as a salt. Where two headings read alike, the source gives them in different places.", "data": [{"smiles": "O=C([O-])O.[Na+]", "note": "[sodium bicarbonate]", "values": [{"measurement": "extravasation necrosis", "setting": "[1]", "result": "blocked"}]}, {"smiles": "C(=N\\NC1=NCCN1)/c1cccc2cc3c(/C=N/NC4=NCCN4)cccc3cc12", "note": "[Formula (III)]", "values": [{"measurement": "effect at the telomerase level", "setting": "telomerase", "result": "suppressing its catalytic activity"}, {"measurement": "apoptosis", "setting": "[2]", "result": "absence of apoptosis"}, {"measurement": "cell cycle impairment", "setting": "[2]", "result": "G2M phase arrest"}, {"measurement": "DNA damage response", "setting": "[2]; telomerase-expressing cells and ALT-positive cell lines, partially co-localize at the telomere", "result": "formation of γH2AX foci"}]}, {"smiles": "CN1C(=O)/C(=C2/C(=O)Nc3ccccc32)c2ccccc21", "note": "[Meisoindigo, meisoindigo]", "values": [{"measurement": "concentration of inhibition of GSK-3β", "setting": "[3]", "result": "5 to 50", "unit": "nM"}]}, {"smiles": "C(=NNC1=NCCN1)c1c2ccccc2c(C=NNC2=NCCN2)c2ccccc12", "note": "[bisantrene, 9,10-anthracenedicarboxaldehyde bis[(4,5-dihydro-1H-imidazol-2-yl)hydrazine]dihydrochloride]", "values": [{"measurement": "time after treatment for which cytostatic macrophages could be isolated from peritoneal exudate", "setting": "macrophages; cytostatic in cultures of P815 (mastocytoma) tumor cells", "result": 4, "unit": "weeks"}, {"measurement": "minimal effective in vivo dose", "setting": "macrophages; macrophage activation", "result": "~25", "unit": "mg/kg"}, {"measurement": "affinity constants", "setting": "double-stranded DNA", "result": "above 10^6 M^−1"}, {"measurement": "activity in murine tumor models", "setting": "[4]; P-388 leukemia and B-16 melanoma", "result": "antitumor activity"}, {"measurement": "activity in cancer models", "setting": "[4]; intravenously (i.v.), intraperitoneally (i.p.), or subcutaneously (s.c.)", "result": "effective"}, {"measurement": "activity in cancer models", "setting": "[4]; orally", "result": "inactive"}, {"measurement": "sensitivity in in vitro colony-forming assays", "setting": "Human tumor cells; breast, ovarian, renal, small cell and non-small cell lung cancer, lymphoma, acute myelogenous leukemia, melanoma, gastric, adrenal, head and neck cancer", "result": "sensitive"}, {"measurement": "Activity in clonogenic assays from 684 patients", "setting": "Human tumor cells; colorectal cancer", "result": "not in colorectal cancer"}, {"measurement": "cross resistance", "setting": "Human tumor cells; with Adriamycin and mitoxantrone", "result": "lack of cross resistance"}, {"measurement": "activity in Phase II clinical trials", "setting": "metastatic breast cancer", "result": "active"}, {"measurement": "activity", "setting": "human colon cancer", "result": "inactive"}, {"measurement": "activity", "setting": "[5]", "result": "inactive"}, {"measurement": "DNA strand breaks", "setting": "L1210 leukemia cells; L1210 leukemia cells, typical of inhibition of DNA topoisomerase II", "result": "induce protein-associated DNA strand breaks"}, {"measurement": "DNA supercoiling", "setting": "L1210 leukemia cells; indicative of DNA intercalation", "result": "induce altered DNA supercoiling"}, {"measurement": "cardiotoxicity", "setting": "animals", "result": "not cardiotoxic"}, {"measurement": "toxicity compared with doxorubicin", "setting": "cardiotoxicity context", "result": "less than that of the anthracycline doxorubicin"}, {"measurement": "toxicities observed", "setting": "dogs and monkeys, high doses", "result": "leukopenia, anorexia, diarrhea, injection site necrosis, enterocolitis, muscle degeneration, and pulmonary edema"}, {"measurement": "effect on platelet aggregation", "setting": "Human Platelets", "result": "inhibit platelet aggregation"}, {"measurement": "administered dose excreted unchanged in the urine", "setting": "[6]; in 24 hr", "result": 11.3, "unit": "%"}, {"measurement": "plasma clearance", "setting": "[6]; [18]", "result": 735, "unit": "mL/min/m^2"}, {"measurement": "steady state volume of distribution (Vdss)", "setting": "[6]; [18]", "result": 1845, "unit": "L/m^2"}, {"measurement": "administered dose found in the urine", "setting": "[7]", "result": "3.4±1.1", "unit": "%"}, {"measurement": "t½ α", "setting": "[8]; another single dose study", "result": 3, "unit": "min"}, {"measurement": "t½ β", "setting": "[8]; another single dose study", "result": 1, "unit": "h"}, {"measurement": "t½ γ", "setting": "[8]; another single dose study", "result": 8, "unit": "h"}, {"measurement": "t½ α", "setting": "[8]; first single dose study", "result": 3.44, "unit": "min"}, {"measurement": "t½ β", "setting": "[8]; first single dose study", "result": 1.33, "unit": "h"}, {"measurement": "t½ γ", "setting": "[8]; first single dose study", "result": 26.13, "unit": "h"}, {"measurement": "volume of distribution", "setting": "[9]", "result": 687, "unit": "L/m^2"}, {"measurement": "plasma clearance", "setting": "[10]", "result": "1306±179", "unit": "mL/min/m^2"}, {"measurement": "plasma concentration", "setting": "[10]; dose of 56 mg/m^2", "result": "12 ± 6", "unit": "ng/mL"}, {"measurement": "plasma concentration", "setting": "[10]; dose of 260 mg/m^2", "result": "55 ± 8", "unit": "ng/mL"}, {"measurement": "urinary excretion of the dose", "setting": "[10]; in 24 hr", "result": 4.6, "unit": "%"}, {"measurement": "dose excreted in the urine", "setting": "[11]", "result": 7.1, "unit": "%"}, {"measurement": "t½ α", "setting": "[11]", "result": 0.9, "unit": "h"}, {"measurement": "t½ β", "setting": "[11]", "result": 9.7, "unit": "h"}, {"measurement": "dose excreted in the urine", "setting": "[12]; in vivo", "result": "Less than 7%"}, {"measurement": "route by which the majority of the drug is eliminated", "setting": "[12]; in vivo", "result": "hepatobiliary route"}, {"measurement": "area under the plasma concentration×time curve", "setting": "[12]; intravenous dose of 260 mg/m^2", "result": 4400, "unit": "µg·h/mL"}, {"measurement": "area under the plasma concentration×time curve", "setting": "[12]; intravenous dose of 340 mg/m^2", "result": 5700, "unit": "µg·h/mL"}, {"measurement": "beta phase", "setting": "[12]; three phases of elimination", "result": "approximately 1.5 hours"}, {"measurement": "initial distributive phase", "setting": "[12]; three phases of elimination", "result": 6, "unit": "min"}, {"measurement": "bound to plasma proteins", "setting": "plasma proteins", "result": "More than 95%"}, {"measurement": "Maximally tolerated dose", "setting": "[13]; daily×5, repeat every 4 week (Spiegel et al. 1982)", "result": 80, "unit": "mg/m^2"}, {"measurement": "antitumor activity in phase I clinical trials", "setting": "[13]; hepatocellular cancer and hypernephroma (one patient each), lymphoma, myeloma, melanoma, renal cancer, tumors of the bladder and lung", "result": "showed activity"}, {"measurement": "Thrombocytopenia", "setting": "[13]; human, in vivo", "result": "mild"}, {"measurement": "major dose-limiting toxic effect", "setting": "[13]; human, in vivo", "result": "leukopenia"}, {"measurement": "Maximally tolerated dose", "setting": "[13]; monthly (every 3-4 week) (Von Hoff et al. 1981b)", "result": 260, "unit": "mg/m^2"}, {"measurement": "Maximally tolerated dose", "setting": "[13]; monthly, patients with poor bone marrow reserve (Von Hoff et al. 1981b)", "result": 240, "unit": "mg/mg^2"}, {"measurement": "dose limiting toxicity (DLT)", "setting": "[13]; phase I doses between 190-430 mg/m^2 q3w", "result": "neutropenia"}, {"measurement": "doses requiring a central line due to phlebitis", "setting": "[13]; phase I study, 72 h", "result": "over 156 mg/m^2"}, {"measurement": "MTD", "setting": "[13]; phase I study, over 72 h", "result": 300, "unit": "mg/m^2"}, {"measurement": "nadir for myelosuppression", "setting": "[13]; schedule of every 3 to 4 weeks", "result": 9, "unit": "days"}, {"measurement": "recovery from myelosuppression", "setting": "[13]; schedule of every 3 to 4 weeks", "result": "≤ 19", "unit": "days"}, {"measurement": "Maximally tolerated dose", "setting": "[13]; weekly×3 (Alberts et al. 1982)", "result": 200, "unit": "mg/m^2"}, {"measurement": "Maximally tolerated dose", "setting": "[13]; weekly×3, patients with poor bone marrow reserve (Alberts et al. 1982)", "result": 150, "unit": "mg/mg^2"}, {"measurement": "Maximally tolerated dose", "setting": "[13]; weekly×3, repeat every 4-5 week (Yap et al. 1982)", "result": 150, "unit": "mg/m^2"}, {"measurement": "patients reporting malaise", "setting": "[14]; Yap et al. 1982", "result": "up to one-half of patients"}, {"measurement": "patients who experienced anaphylactoid reactions", "setting": "[14]; following a bisantrene infusion", "result": "Up to 10%"}, {"measurement": "nausea or vomiting", "setting": "[14]; human, in vivo", "result": "very little nausea or vomiting"}, {"measurement": "radioangiocardiographic monitoring of cardiac function", "setting": "[14]; patients receiving the drug", "result": "no decrease in ejection fraction"}, {"measurement": "cardiotoxicity compared with other agents", "setting": "[14]; phase III trial", "result": "less cardiotoxic than mitoxantrone or doxorubicin"}, {"measurement": "Alopecia (hair loss) compared with doxorubicin", "setting": "[14]; randomized trial in advanced breast cancer", "result": "less intense"}, {"measurement": "aqueous solubility", "setting": "[15]", "result": "lack of aqueous solubility"}, {"measurement": "metabolism in vitro", "setting": "[16]", "result": "substrate for hepatic microsomal enzymes"}, {"measurement": "Brain levels", "setting": "[17]", "result": "extremely low"}, {"measurement": "tissues with the highest concentration (in descending order)", "setting": "[17]", "result": "kidney, liver, gallbladder, spleen, lung, and heart"}, {"measurement": "interaction with P-glycoprotein", "setting": "P-glycoprotein", "result": "substrate for P-glycoprotein"}]}]}
